Experimental data reported in patent US20050209157A1, “Short bioactive peptides and methods for their use” (priority 2001, published 2005).
Entries after “also recorded” stand apart in the source; their conditions may differ. Read-outs that look alike come from different tables or passages of the source. No end group written: not given here.

What was measured:
in vitro [1] = assay type: cell-based, human; details: human, human red blood cells
fungal = test: Presently preferred antifungal peptides, selected from the MIC/MBC data; assay type: cell-based; details: X = preferred
From the text: The peptide's “length” is the number of amino acid residues in the sequence.

in vitro [2] = details: human, WI38 normal lung fibroblast cells, WI-38 LD50, Table 26, valine substitution
[3] = system: Escherichia coli ATCC 25922; test: Antimicrobial assay I, modified protocol (tryptic soy broth), MBC; details: minimum bactericidal concentration, Table 4
[4] = system: Pseudomonas aeruginosa ATCC 27853; test: as above; details: minimum bactericidal concentration, Table 4
Experimental: (§2) The preparation of all media, stock solutions, and dilutions took place in a laminar flow hood to prevent contamination. Bacterial cells were freshly grown on antibiotic medium 2 agar slants (pH 7.0 at 25° C.). Bacteria were suspended and diluted in antibiotic medium 3 to about 10^4 cfu/ml and used as the inoculum. Sample solutions (100 μl/well) were added to plates according to the plate layout. Inoculum (100 μl/well) was added to achieve a final concentration of 5×10^3 cfu/ml. Negative controls received 100 μl saline and 100 μl growth medium. Positive controls received 100 μl saline and 100 μl inoculum. Bacterial plates were incubated at 37° C. for 24 hours.
(§3) However, the data for Table 4 were obtained with a modified protocol wherein the medium was tryptic soy broth, inocolum strength was approximately 10^4 CFU per ml, and values determined were minimum bactericidal concentrations (MBC) or minimum fungicidal concentrations (MFC).
(§4) MBC or MFC values are in μg/mL. E. coli is Escherichia coli ATCC accession number 25922; P. aerug is Pseudomonas aeruginosa ATCC accession number 27853, S. aur. is Stapholococcus aureus ATCC accession number 25923; Candida is Candida albicans ATCC accession number 10231.

[5] = system: Stapholococcus aureus ATCC 25923; test: as above; details: minimum bactericidal concentration, Table 4
Experimental: as §2, §3, §4

[6] = system: Candida albicans ATCC 10231; test: Antimicrobial assay I, modified protocol (tryptic soy broth), MFC; details: minimum fungicidal concentration, Table 4
[7] = system: Pseudomonas aeruginosa ATCC 9027; test: Antimicrobial assay I, MIC by OD measurement; assay type: cell-based
[8] = system: Staphylococcus aureus ATCC 6538; test: Antimicrobial assay I, MIC by OD measurement; assay type: cell-based; details: 37° C. for 24 hours, absorbance 620 nm
[9] = system: yeast (Saccharomyces cerevisiae); test: Antimicrobial assay I, yeast assay in RPMI 1640; assay type: cell-based; details: RPMI 1640 media
BMKC = test: Anti-cancer assay, MTT, LD50; assay type: cell-based; details: BMKC cloned melanoma line, 24 hours with peptide
From the text: (§1) Numbers are LD50 values (μg/mL).

H1299 = test: Anti-cancer assay, MTT, LD50; assay type: cell-based; details: 24 hours with peptide, lung large cell carcinoma
From the text: as §1

HeLaS3 = test: Anti-cancer assay, MTT, LD50; assay type: cell-based; details: 24 hours with peptide, cervical carcinoma
From the text: as §1

MCF7 = test: Anti-cancer assay, MTT, LD50; assay type: cell-based; details: MCF7 breast adenocarcinoma line, MTT, 24 hours with peptide
From the text: as §1

PC3 = test: Anti-cancer assay, MTT, LD50; assay type: cell-based; details: 24 hours with peptide, prostate adenocarcinoma
From the text: as §1

SW480 = test: Anti-cancer assay, MTT, LD50; assay type: cell-based; details: SW480 colon adenocarcinoma line, 24 hours with peptide
From the text: as §1

[10] = system: human red blood cells (RBC); test: in vitro; assay type: cell-based; details: hemolytic assay, concentration at 50% hemolysis, 1 hour at 37° C.
[11] = system: hairless rat skin burn wound; test: In vivo wound healing, TCA chemically induced skin burn wound
From the text: The hairless rat was chosen as a suitable test model. Female hairless rats of 100 to 150 grams weight and 8 to 12 weeks age were used in the study.
As an alternative, 70% trichloroacetic (TCA) dissolved in 70% ethanol was employed to induce the dermal erosion patches. […] As the chemical burn agent, the TCA treatment inflicted on the rats far less trauma and mortality than occurred with the Phenol model.
The experimental Protocol procedure steps were as follows: • 1. The animal was anesthetized (40 mg/kg Phenobarbital). • 2. Color photographs of the animal's back (with six separate peels) were taken before each treatment and daily thereafter. • 3. Rat skin surface was prepared by wiping with 70% ethanol. Filter paper discs (1.1 cm diameter) were soaked in 70% TCA/ethanol. • 4. The discs were placed on the back of the hairless rat for 30 minutes [6 disks providing for 2 control (no peptide treatment) disks and 4 disks for peels to receive peptide treatment.] • 5. After a 30 minute burn the discs were removed. Twenty four hours later, different peptide solutions (1500 ppm in saline) were applied to four peels, and saline was applied to the two control peels. • 6. Peptide solutions (and saline for the controls) were applied to the six wounds with a soft brush each day thereafter. • 7. It took approximately one month for the wounds to heal (complete skin closure with stabilized epidermis), after which the animal was sacrificed. • 8. The treated skin was harvested, section stained with trichrome, and mounted on slides.
The percentage of wound closure for each peel (six sites) was measured each day until the animal was sacrificed. The percentage closure was determined by measuring on the animal photographs the area of the remaining scab relative to the area of the initial scar after the burn. These measurements were made by digitizing and analyzing the peels using the Sigma Plot ProScan 4 program.
This provided a measure of the post-TCA burn treatment of the inflammatory response in each peel site.
The extent of epidermal thickening (hyperkeratosis) at each site was also determined by measurement with the Sigma Plot program applied to the stained section slides of the various wound areas and the normal untreated skin (control) surrounding the peels. At magnifications of 100× to 320×, the microphotographs of the color slides provided a powerful tool for such quantification of the extent of hyperkeratosis evident in each peel.
Treatment of the section slides with selective stains produced identifiable evidence of the presence of both leukocyte and fibroblast cells in the wound areas. This was also quantified by the Sigma Plot program.
The above described animal model and protocols were employed in the testing of approximately 20 of the peptides listed in Table 48 (and other peptides for comparison) as preferred FLAK peptides for wound healing.

[12] = pH 7, Table 26, valine substitution, read-out: Hemolysis RBC LD50
[13] = rat model, TCA burn treated by peptide

Substance | Anti-fungal (preferred peptide) (fungal) | MBC E. coli A.25922 [3] [µg/mL] | MBC P. aerug A.27853 [4] [µg/mL] | MBC S. aur A.25923 [5] [µg/mL] | MFC Candida A.10231 [6] [µg/mL] | further results
FALALKALKKL-NH2 [compound 165] | X (Preferred antifungal peptides can be selected as having MIC or MBC values of less than or equal to about 25 μg/ml) | 10 | 25 | 25 | 10 | HC50 at 1 h (in vitro [1]; [12]): 350 µg/mL; CC50 at 24 h (in vitro [2]): 850 µg/mL
FAKLLAKALKKL-NH2 [compound 103] | X (Preferred antifungal peptides can be selected as having MIC or MBC values of less than or equal to about 25 μg/ml) | 30 | 30 | >50 | 25 | –
FAKLLALALKKAL-NH2 [compound 97] | X (Preferred antifungal peptides can be selected as having MIC or MBC values of less than or equal to about 25 μg/ml) | 25 | >50 | 25 | 25 | –
FALKALKKLKKALKKAL-NH2 [compound 153] | X (Preferred antifungal peptides can be selected as having MIC or MBC values of less than or equal to about 25 μg/ml) | 10 | 25 | 5 | 25 | –
FALALKALKKAL-NH2 [compound 144] | X (Preferred antifungal peptides can be selected as having MIC or MBC values of less than or equal to about 25 μg/ml) | 10 | 25 | 25 | 25 | –
FAKLLAKALKKAL-NH2 [compound 102] | X (Preferred antifungal peptides can be selected as having MIC or MBC values of less than or equal to about 25 μg/ml) | 25 | 30 | 25 | 15 | –
MPKEKVFLKIEKMGRNIRN-NH2 [P107, reference compound] | – | – | – | – | – | paerug9027 (MIC) ([7]; 37° C. for 24 hours, absorbance 620 nm): > (> indicates greater than 200 μg/mL); staph6538 (MIC) [8]: > (> indicates greater than 200 μg/mL); yeast (MIC or MFC) [9]: > (> indicates greater than 200 μg/mL); LD50 BMKC (BMKC): > (> indicates greater than 1000); H1299 LD50 (H1299): > (> indicates greater than 1000); HeLaS3 LD50 (HeLaS3): > (> indicates greater than 1000); LD50 MCF7 (MCF7): > (> indicates greater than 1000); PC3 LD50 (PC3): > (> indicates greater than 1000); LD50 SW480 (SW480): > (> indicates greater than 1000); LD50 [10]: > (> indicates greater than 1000); rate of wound closure ([11]; hairless rat, full wound closure at 26 days): small advantage in rate of wound closure over the other peptides and no peptide; ability to limit post-TCA burn inflammatory responses ([11]; hairless rat, peptide solutions 1500 ppm in saline, topical daily): superior in this respect; hyperkeratosis (epidermal thickening) ([11]; hairless rat, peptide solutions 1500 ppm in saline, topical daily, listed as SEQ ID NO:71): lowest evidence of hyperkeratosis (epidermal thickening); also recorded: substantially no hyperkeratosis as compared to the TCA burn untreated control; Epidermal thickening [11, 13]: 33 % of control (TCA only); Fibroblast cells in test area [11, 13]: 420 % of normal skin; Inflammatory response area [11, 13]: 0 % of healed scar; Leukocyte cells in test area [11, 13]: 400 % of normal skin; Wound closure ([11]; rat model, TCA burn treated by peptide, 26 days): 100 % of initial wound; WI38 LD50 (WI38; MTT, 24 hours with peptide, normal fibroblast line): > (> indicates greater than 1000); LD50 WI38 (WI38; WI38 normal lung fibroblast line, MTT, 24 hours with peptide): > (> indicates greater than 1000)
KYKKALKKLAKLL-NH2 [compound 146] | X (Preferred antifungal peptides can be selected as having MIC or MBC values of less than or equal to about 25 μg/ml) | 10 | >250 | 75 | 10 | –
VAKLLAKLAKKVL-NH2 [compound 154] | X (Preferred antifungal peptides can be selected as having MIC or MBC values of less than or equal to about 25 μg/ml) | 50 | 100 | >250 | 25 | P. aerug (MIC) [7]: 100 µg/mL; HC50 at 1 h (in vitro [1]; [12]): 870 µg/mL; HC50 at 1 h (in vitro [1]; pH 7, Table 27, read-out: Hemolysis (LD50)): 450 µg/mL; WI38 LD50 (WI38; Table 27): 110 µg/mL; CC50 at 24 h (in vitro [2]): 110 µg/mL
FKLAFKLAKKAFL-NH2 [compound 122] | X (Preferred antifungal peptides can be selected as having MIC or MBC values of less than or equal to about 25 μg/ml) | 30 | 30 | 25 | 15 | –
